Assay results reported in patent US6376710B2, “Amidine compounds and their use as pesticides” (Sumitomo Chemical Co., Ltd., priority 2000, dated 2002).
Where two headings read alike, the source gives them in different places.

Columns and labels:
Type in all cases: in vivo
[1] = system: house fly (Musca domeestica); assay: Test Example 3: treated filter paper with sucrose bait, house fly female adults, mortality; conditions: 24 h
Method: On the bottom of a polyethylene cup of 5.5 cm in diameter was placed a filter paper of the same size, to which a water dilution (500 ppm) of each of the formulations obtained from present compounds 1, 2, 3, 4, 5, 6, 7, 8, 9, 10, 11, 12, 13, 14, 15, 16, 17, 18, 19, 20, 21, 25, 26, 27, 28, 29, 32, 33, 34, 35, 36, 37, 38, 39, 40, 41, 42, 43, 44, 45, 47, 51, 52, 53, 54, 55, 60, and 61 according to Formulation Example 1 was added dropwise in an amount of 0.7 ml, and the cup was uniformly charged with about 30 mg of sucrose as a bait. Ten female adults of house fly (Musca domeestica) were set free in each cup, which was then kept covered. After 1 day, their survival was examined to determine the mortality.

[2] = system: German cockroach (Blattella germanica); assay: Test Example 2: treated filter paper with sucrose bait, German cockroach male adults, mortality; conditions: 144 h
[3] = system: common mosquito (Culex pipiens pallens); assay: Test Example 4: treated water, common mosquito final-instar larvae, mortality; conditions: 192 h
[4] = active ingredient 3.5 ppm in ion-exchanged water (0.7 ml of 500 ppm dilution), final-instar larvae, after 8 days, read-out: mortality
[5] = water dilution (500 ppm) of flowable (Formulation Example 1), 0.7 ml on filter paper, male adults, after 6 days, read-out: mortality

| Structure (SMILES) | mortality at 500 µg/mL [1] [%] | mortality at 500 µg/mL [2] [%] | mortality at 3.5 ppm [3] [%] | mortality at 3.5 ppm [3, 4] [%] | mortality at 500 µg/mL ([1]; water dilution (500 ppm) of flowable (Formulation Example 1), 0.7 ml on filter paper, female adults, after 1 day, read-out: mortality) [%] | mortality at 500 µg/mL [2, 5] [%] |
| --- | --- | --- | --- | --- | --- | --- |
| NC(=Nc1c(Cl)cc(C(F)(F)F)cc1[N+](=O)[O-])C(F)(F)F [present compound 1, N-(2-chloro-6-nitro-4-trifluoromethylphenyl)-2,2,2-trifluoroacetamidine] | 100 | 100 | – | – | – | – |
| NC(=Nc1c(F)cc(C(F)(F)F)cc1F)C(F)(F)F [present compound 2, N-(2,6-Difluoro-4-trifluoromethylphenyl)-2,2,2-trifluoroacetamidine] | 100 | 100 | – | – | – | – |
| NC(=Nc1c(Cl)cc(C(F)(F)F)cc1Cl)C(F)(F)F [present compound 3, N-(2,6-Dichloro-4-trifluoromethylphenyl)-2,2,2-trifluoroacetamidine] | 100 | 100 | 100 | – | – | – |
| NC(=Nc1c(Cl)cc(C(F)(F)F)cc1Cl)C(F)(F)C(F)(F)F [present compound 4, N-(2,6-dichloro-4-trifluoromethylphenyl)-2,2,3,3,3-pentafluoropropionamidine] | 100 | 100 | 100 | – | – | – |
| NC(=Nc1c(Cl)cc(C(F)(F)F)cc1Cl)C(F)(F)Cl [present compound 5, 2-Chloro-N-(2,6-dichloro-4-trifluoromethylphenyl)-2,2-difluoroacetamidine] | 100 | 100 | 100 | – | – | – |
| NC(=Nc1c([N+](=O)[O-])cc(C(F)(F)F)cc1[N+](=O)[O-])C(F)(F)C(F)(F)F [present compound 6, N-(2,6-Dinitro-4-trifluoromethylphenyl)-2,2,3,3,3-pentafluoropropionamidine] | 100 | 100 | 100 | – | – | – |
| NC(=Nc1c(Cl)cc(C(F)(F)F)cc1Cl)C(F)F [present compound 7, N-(2,6-Dichloro-4-trifluoromethylphenyl)-2,2-difluoroacetamidine] | 100 | 100 | – | – | – | – |
| NC(=Nc1c(Cl)cc(C(F)(F)F)cc1[N+](=O)[O-])C(F)(F)C(F)(F)F [present compound 8, N-(2-Chloro-6-nitro-4-trifluoromethylphenyl)-2,2,3,3,3-pentafluoropropionamidine] | 100 | 100 | 100 | – | – | – |
| NC(=Nc1c(F)cc(C(F)(F)F)cc1F)C(F)(F)C(F)(F)F [present compound 9, N-(2,6-Difluoro-4-trifluoromethylphenyl)-2,2,3,3,3-pentafluoropropionamidine] | 100 | 100 | 100 | – | – | – |
| NC(=Nc1c(Cl)cc(C(F)(F)F)cc1Br)C(F)(F)C(F)(F)F [present compound 10, N-(2-Bromo-6-chloro-4-trifluoromethylphenyl)-2,2,3,3,3-pentafluoropropionamidine] | 100 | 100 | 100 | – | – | – |
| NC(=Nc1c(Cl)cc(C(F)(F)F)cc1Cl)C(F)(F)C(F)(F)C(F)(F)F [present compound 11, N-(2,6-Dichloro-4-trifluoromethylphenyl)-2,2,3,3,4,4,4-heptafluorobutyramidine] | – | – | – | 100 | 100 | 100 |
| NC(=Nc1c(Cl)cc(C(F)(F)F)cc1Cl)C(Cl)Cl [present compound 12, 2,2-Dichloro-N-(2,6-dichloro-4-trifluoromethylphenyl)acetamidine] | 100 | 100 | 100 | – | – | – |
| NC(=Nc1c(F)cc(C(F)(F)F)cc1Cl)C(F)(F)F [present compound 13, N-(2-Chloro-6-fluoro-4-trifluoromethylphenyl)-2,2,2-trifluoroacetamidine] | 100 | 100 | 100 | – | – | – |
| N#Cc1cc(C(F)(F)F)cc(Cl)c1N=C(N)C(F)(F)C(F)(F)F [present compound 14, N-(2-Chloro-6-cyano-4-trifluoromethylphenyl)-2,2,3,3,3-pentafluoropropionamidine] | 100 | 100 | 100 | – | – | – |
| Cc1cc(C(F)(F)F)cc(Cl)c1N=C(N)C(F)(F)C(F)(F)F [present compound 15, N-(2-Chloro-6-methyl-4-trifluoromethylphenyl)-2,2,3,3,3-pentafluoropropionamidine] | 100 | 100 | 100 | – | – | – |
| NC(=Nc1c(Br)cc(OC(F)(F)F)cc1Br)C(F)(F)C(F)(F)F [present compound 16, N-(2,6-Dibromo-4-trifluoromethoxyphenyl)-2,2,3,3,3-pentafluoropropionamidine] | 100 | 100 | 100 | – | – | – |
| NC(=Nc1c(Br)cc(C(F)(F)F)cc1Br)C(F)(F)C(F)(F)F [present compound 17, N-(2,6-Dibromo-4-trifluoromethylphenyl)-2,2,3,3,3-pentafluoropropionamidine] | 100 | 100 | 100 | – | – | – |
| NC(=Nc1c(Cl)cc(OC(F)(F)F)cc1Cl)C(F)(F)C(F)(F)F [present compound 18, N-(2,6-Dichloro-4-trifluoromethoxyphenyl)-2,2,3,3,3-pentafluoropropionamidine] | 100 | 100 | 100 | – | – | – |
| NC(=Nc1c(F)cc(C(F)(F)F)cc1Cl)C(F)(F)C(F)(F)F [present compound 19, N-(2-Chloro-6-fluoro-4-trifluoromethylphenyl)-2,2,3,3,3-pentafluoropropionamidine] | 100 | 100 | 100 | – | – | – |
| NC(=Nc1c(Cl)cc(C(F)(F)F)cc1Cl)C(F)(F)C(F)(F)C(F)(F)C(F)(F)F [present compound 30, N-(2,6-Dichloro-4-trifluoromethylphenyl)-2,2,3,3,4,4,5,5,5-nonafluoropentanamidine] | – | – | – | 100 | – | 100 |
| NC(=Nc1c(Cl)cc(C(F)(F)F)cc1Cl)C(F)(F)C(F)(F)C(F)(F)C(F)(F)C(F)(F)F [present compound 31, N-(2,6-Dichloro-4-trifluoromethylphenyl)-2,2,3,3,4,4,5,5,6,6,6-undecafluorohexanamidine] | – | – | – | 100 | – | – |
| NC(=Nc1c([N+](=O)[O-])cc(C(F)(F)F)cc1[N+](=O)[O-])C(F)(F)F [present compound 33, N-(2,6-Dinitro-4-trifluoromethylphenyl)-2,2,2-trifluoroacetamidine] | 100 | 100 | – | – | – | – |
| NC(=Nc1c([N+](=O)[O-])cc(C(F)(F)C(F)(F)C(F)(F)F)cc1[N+](=O)[O-])C(F)(F)C(F)(F)C(F)(F)F [present compound 48, N-(2,6-Dinitro-4-heptafluoropropylphenyl)-2,2,3,3,4,4,4-heptafluorobutyramidine] | – | – | 100 | – | – | – |
| NC(=Nc1c([N+](=O)[O-])cc(C(F)(F)C(F)(F)C(F)(F)F)cc1[N+](=O)[O-])C(F)(F)F [present compound 49, N-(2,6-Dinitro-4-heptafluoropropylphenyl)-2,2,2-trifluoroacetamidine] | – | 100 | 100 | – | – | – |
| NC(=Nc1c([N+](=O)[O-])cc(C(F)(C(F)(F)F)C(F)(F)F)cc1[N+](=O)[O-])C(F)(F)C(F)(F)C(F)(F)F [present compound 50, N-{2,6-Dinitro-4-(1,2,2,2-tetrafluoro-1-trifluoromethylethyl)phenyl}-2,2,3,3,4,4,4-heptafluorobutyramidine] | – | 100 | 100 | – | – | – |
| CN(C)C(=Nc1c(Cl)cc(C(F)(F)F)cc1Cl)C(F)(F)F [present compound 52, N′-(2,6-dichloro-4-trifluoromethylphenyl)-2,2,2-trifluoro-N,N-dimethylacetamidine] | 100 | 100 | – | – | – | – |
| CCCN(CCC)C(=Nc1c(Cl)cc(C(F)(F)F)cc1Cl)C(F)(F)F [present compound 56, N′-(2,6-dichloro-4-trifluoromethylphenyl)-2,2,2-trifluoro-N,N-dipropylacetamidine] | – | 100 | – | – | – | – |
| CCN(CC)C(=Nc1c(Cl)cc(C(F)(F)F)cc1Cl)C(F)(F)F [present compound 57, N′-(2,6-Dichloro-4-trifluoromethylphenyl)-N,N-diethyl-2,2,2-trifluoroacetamidine] | – | 100 | 100 | – | – | – |
| CCNC(=Nc1c(Cl)cc(C(F)(F)F)cc1Cl)C(Cl)Cl [present compound 58, N′-(2,6-Dichloro-4-trifluoromethylphenyl)-2,2-dichloro-N-ethylacetamidine] | – | 100 | 100 | – | – | – |
| CCNC(=Nc1c([N+](=O)[O-])cc(C(F)(F)F)cc1[N+](=O)[O-])C(Cl)Cl [present compound 59, 2,2-Dichloro-N′-(2,6-dinitro-4-trifluoromethylphenyl)-N-ethylacetamidine] | – | 100 | 100 | – | – | – |
